Measurements: ChEMBL document CHEMBL5518209, “Caltrop-like Small-Molecule Antidotes That Neutralize Unfractionated Heparin and Low-Molecular-Weight Heparin In Vivo” (J Med Chem, 2024)
Active and inactive are the calls of the source. The rule behind the calls is not given here.

Tests used:
Bos taurus [1] = species: Bos taurus; assay: Neutralization of dalteparin sodium in bovine plasma at 10 to 60 ug/ml by aPTT assay; type: cell-free; details: dose 10-60 µg/ml
Bos taurus [2] = species: Bos taurus; assay: Neutralization of unfractionated heparin in bovine plasma at 10 to 60 ug/ml by aPTT assay; type: cell-free; details: dose 10-60 µg/ml
Bos taurus [3] = species: Bos taurus; assay: Neutralization of nadroparin calcium in bovine plasma at 10 to 60 ug/ml by aPTT assay; type: cell-free; details: dose 10-60 µg/ml
Bos taurus [4] = species: Bos taurus; assay: Neutralization of enoxaparin sodium in bovine plasma at 10 to 60 ug/ml by aPTT assay; type: cell-free; details: dose 10-60 µg/ml
[5] = Acute toxicity in iv dosed ICR mouse assessed as maximum tolerated dose measured after 7 days; type: organism-based; details: in vivo, time 7 day
Homo sapiens [6] = species: Homo sapiens; assay: Neutralization of unfractionated heparin in human poor platelet plasma at 10 to 50 ug/ml by aPTT assay relative to control; type: cell-free; details: dose 10-50 µg/ml
Bos taurus [7] = species: Bos taurus; assay: Neutralization of unfractionated heparin in bovine plasma at 10 to 60 ug/ml by aPTT assay relative to control; type: cell-free; details: dose 10-60 µg/ml
Bos taurus [8] = species: Bos taurus; assay: Neutralization of dalteparin sodium in bovine plasma at 10 to 60 ug/ml by aPTT assay relative to control; type: cell-free; details: dose 10-60 µg/ml
Homo sapiens [9] = species: Homo sapiens; assay: Neutralization of enoxaparin sodium in human poor platelet plasma at 10 to 50 ug/ml by aPTT assay relative to control; type: cell-free; details: dose 10-50 µg/ml
Bos taurus [10] = species: Bos taurus; assay: Neutralization of enoxaparin sodium in bovine plasma at 10 to 60 ug/ml by aPTT assay relative to control; type: cell-free; details: dose 10-60 µg/ml
Homo sapiens [11] = species: Homo sapiens; assay: Neutralization of dalteparin sodium in human poor platelet plasma at 10 to 50 ug/ml by aPTT assay relative to control; type: cell-free; details: dose 10-50 µg/ml
[12] = Binding affinity to enoxaparin sodium in saline at pH 7.4 assessed as binding constant by ITC analysis
[13] = Binding affinity to dalteparin sodium in saline at pH 7.4 assessed as binding constant by ITC analysis
[14] = Binding affinity to enoxaparin sodium in saline at pH 7.4 assessed as change in enthalpy by ITC analysis
[15] = Binding affinity to dalteparin sodium in saline at pH 7.4 assessed as change in gibbs free energy by ITC analysis
Homo sapiens [16] = species: Homo sapiens; assay: Neutralization of enoxaparin sodium in human poor platelet plasma at 10 to 50 ug/ml by aPTT assay; type: cell-free; details: dose 10-50 µg/ml
Erythrocyte [17] = assay: Hemolytic activity in human red blood cells at 512 ug/ml; type: toxicity, cell-based; details: dose 512 µg/ml
[18] = Binding affinity to unfractionated heparin in saline at pH 7.4 assessed as change in enthalpy by ITC analysis
[19] = Binding affinity to enoxaparin sodium in saline at pH 7.4 assessed as change in gibbs free energy by ITC analysis
Homo sapiens [20] = species: Homo sapiens; assay: Reversal of anticoagulation of nadroparin calcium in human whole blood assessed as minimum effective dose incubated for 5 mins by thromboelastography; type: tissue-based
Homo sapiens [21] = species: Homo sapiens; assay: Reversal of anticoagulation of enoxaparin sodium in human whole blood assessed as minimum effective dose incubated for 5 mins by thromboelastography; type: tissue-based
Erythrocyte [22] = assay: Hemolytic activity in Sprague-Dawley rat red blood cells at 512 ug/ml; type: toxicity, cell-based; details: dose 512 µg/ml
[23] = Binding affinity to nadroparin calcium in saline at pH 7.4 assessed as change in gibbs free energy by ITC analysis
[24] = Binding affinity to dalteparin sodium in saline at pH 7.4 assessed as change in entropy by ITC analysis
[25] = Binding affinity to enoxaparin sodium in saline at pH 7.4 assessed as change in entropy by ITC analysis
[26] = Binding affinity to unfractionated heparin in saline at pH 7.4 assessed as binding constant by ITC analysis
[27] = Binding affinity to unfractionated heparin in saline at pH 7.4 assessed as change in gibbs free energy by ITC analysis
Homo sapiens [28] = species: Homo sapiens; assay: Reversal of anticoagulation of dalteparin sodium in human whole blood assessed as minimum effective dose incubated for 5 mins by thromboelastography; type: tissue-based
[29] = Binding affinity to nadroparin calcium in saline at pH 7.4 assessed as binding constant by ITC analysis
[30] = Binding affinity to dalteparin sodium in saline at pH 7.4 assessed as change in enthalpy by ITC analysis
[31] = Binding affinity to nadroparin calcium in saline at pH 7.4 assessed as change in entropy by ITC analysis
[32] = Binding affinity to unfractionated heparin in saline at pH 7.4 assessed as change in entropy by ITC analysis
[33] = Binding affinity to nadroparin calcium in saline at pH 7.4 assessed as change in enthalpy by ITC analysis
[34] = Blood compatibility in bovine plasma assessed as activated partial thromboplastin time at <54 ug/ml by turbidimetry method; type: toxicity, cell-free, Bos taurus; details: cattle, dose < 54 µg/ml
Homo sapiens [35] = species: Homo sapiens; assay: Reversal of anticoagulation of unfractionated heparin in human whole blood assessed as minimum effective dose incubated for 5 mins by thromboelastography; type: tissue-based
Bos taurus [36] = species: Bos taurus; assay: Neutralization of nadroparin calcium in bovine plasma at 10 to 60 ug/ml by aPTT assay relative to control; type: cell-free; details: dose 10-60 µg/ml
Erythrocyte [37] = assay: Hemolytic activity in human red blood cells at 256 ug/ml; type: toxicity, cell-based; details: dose 256 µg/ml
Erythrocyte [38] = assay: Hemolytic activity in Sprague-Dawley rat red blood cells at 256 ug/ml; type: toxicity, cell-based; details: dose 256 µg/ml
Homo sapiens [39] = species: Homo sapiens; assay: Neutralization of dalteparin sodium in human poor platelet plasma at 10 to 50 ug/ml by aPTT assay; type: cell-free; details: dose 10-50 µg/ml
[40] = Blood compatibility in bovine plasma assessed as activated partial thromboplastin time at <23 ug/ml by turbidimetry method; type: toxicity, cell-free, Bos taurus; details: cattle, dose < 23 µg/ml

Structure (SMILES): COc1ccc(-c2cc[n+](Cc3ccc(C(c4ccc(C[n+]5ccc(-c6ccc(OC)cc6)cc5)cc4)(c4ccc(C[n+]5ccc(-c6ccc(OC)cc6)cc5)cc4)c4ccc(C[n+]5ccc(-c6ccc(OC)cc6)cc5)cc4)cc3)cc2)cc1
- Activity (Bos taurus [1]): inactive
- Activity (Bos taurus [2]): inactive
- Activity (Bos taurus [3]): inactive
- Activity (Bos taurus [4]): inactive

Structure (SMILES): NCCOc1ccc(-n2cc[n+](Cc3ccc(C(c4ccc(C[n+]5ccn(-c6ccc(OCCN)cc6)c5)cc4)(c4ccc(C[n+]5ccn(-c6ccc(OCCN)cc6)c5)cc4)c4ccc(C[n+]5ccn(-c6ccc(OCCN)cc6)c5)cc4)cc3)c2)cc1
- Activity (Bos taurus [1]): Active
- Activity (Bos taurus [2]): Active
- Activity (Bos taurus [3]): Active
- Activity (Bos taurus [4]): Active

Structure (SMILES): Cn1cc[n+](Cc2ccc(C(c3ccc(C[n+]4ccn(C)c4)cc3)(c3ccc(C[n+]4ccn(C)c4)cc3)c3ccc(C[n+]4ccn(C)c4)cc3)cc2)c1
- Activity (Bos taurus [1]): inactive
- Activity (Bos taurus [2]): inactive
- Activity (Bos taurus [3]): inactive
- Activity (Bos taurus [4]): inactive

Structure (SMILES): NCCSc1ccc(-c2cc[n+](Cc3ccc(C(c4ccc(C[n+]5ccc(-c6ccc(SCCN)cc6)cc5)cc4)(c4ccc(C[n+]5ccc(-c6ccc(SCCN)cc6)cc5)cc4)c4ccc(C[n+]5ccc(-c6ccc(SCCN)cc6)cc5)cc4)cc3)cc2)cc1.[Cl-].[Cl-].[Cl-].[Cl-]
- Activity (Bos taurus [1]): Active
- MTD at 168 h [5]: 8 mg/kg
- Activity (Bos taurus [2]): Active
- Activity (Bos taurus [3]): Active
- Activity (Bos taurus [4]): Active

Structure (SMILES): c1cc[n+](Cc2ccc(C(c3ccc(C[n+]4ccccc4)cc3)(c3ccc(C[n+]4ccccc4)cc3)c3ccc(C[n+]4ccccc4)cc3)cc2)cc1
- Activity (Bos taurus [1]): inactive
- Activity (Bos taurus [2]): inactive
- Activity (Bos taurus [3]): inactive
- Activity (Bos taurus [4]): inactive

Structure (SMILES): NCC(=O)Nc1ccc(-c2cc[n+](Cc3ccc(C(c4ccc(C[n+]5ccc(-c6ccc(NC(=O)CN)cc6)cc5)cc4)(c4ccc(C[n+]5ccc(-c6ccc(NC(=O)CN)cc6)cc5)cc4)c4ccc(C[n+]5ccc(-c6ccc(NC(=O)CN)cc6)cc5)cc4)cc3)cc2)cc1.[Cl-].[Cl-].[Cl-].[Cl-]
- Activity (Homo sapiens [6]): > 98%
- Activity (Bos taurus [7]): > 98%
- Activity (Bos taurus [8]): > 98%
- Activity (Homo sapiens [9]): > 98%
- Activity (Bos taurus [10]): > 98%
- Activity (Bos taurus [1]): Active
- MTD at 168 h [5]: 8 mg/kg
- Activity (Bos taurus [2]): Active
- Activity (Homo sapiens [11]): > 98%
- Activity (Bos taurus [3]): Active
- Activity (Bos taurus [4]): Active

Structure (SMILES): NCCOc1ccc(-c2cc[n+](Cc3ccc(C(c4ccc(C[n+]5ccc(-c6ccc(OCCN)cc6)cc5)cc4)(c4ccc(C[n+]5ccc(-c6ccc(OCCN)cc6)cc5)cc4)c4ccc(C[n+]5ccc(-c6ccc(OCCN)cc6)cc5)cc4)cc3)cc2)cc1.[Cl-].[Cl-].[Cl-].[Cl-]
- Ka [12]: 4.61e+06 M⁻¹
- Ka [13]: 8.77e+06 M⁻¹
- deltaH [14]: -5.87 kcal/mol
- deltaG [15]: -9.47 kcal/mol
- Activity (Homo sapiens [16]): Active
- Activity (Erythrocyte [17]): Non-Toxic
- deltaH [18]: -4.67 kcal/mol
- deltaG [19]: -9.09 kcal/mol
- MED (Homo sapiens [20]): 10 µg/mL
- MED (Homo sapiens [21]): 10 µg/mL
- Activity (Erythrocyte [22]): Non-Toxic
- deltaG [23]: -9.15 kcal/mol
- MTD at 168 h [5]: 17.5 mg/kg
- -TdeltaS [24]: -4.94 kcal/mol
- -TdeltaS [25]: -3.23 kcal/mol
- Ka [26]: 4.72e+06 M⁻¹
- deltaG [27]: -9.11 kcal/mol
- MED (Homo sapiens [28]): 10 µg/mL
- Ka [29]: 5e+06 M⁻¹
- deltaH [30]: -4.53 kcal/mol
- -TdeltaS [31]: -4.77 kcal/mol
- -TdeltaS [32]: -4.43 kcal/mol
- deltaH [33]: -4.38 kcal/mol
- APTT [34]: 23 s
- MED (Homo sapiens [35]): 12 µg/mL
- Activity (Bos taurus [4]): Active

Structure (SMILES): NCCCOc1ccc(-c2cc[n+](Cc3ccc(C(c4ccc(C[n+]5ccc(-c6ccc(OCCCN)cc6)cc5)cc4)(c4ccc(C[n+]5ccc(-c6ccc(OCCCN)cc6)cc5)cc4)c4ccc(C[n+]5ccc(-c6ccc(OCCCN)cc6)cc5)cc4)cc3)cc2)cc1.[Cl-].[Cl-].[Cl-].[Cl-]
- Activity (Homo sapiens [6]): > 98%
- Activity (Bos taurus [7]): > 98%
- Activity (Bos taurus [36]): > 86%
- Activity (Bos taurus [8]): > 98%
- Activity (Homo sapiens [9]): > 98%
- Activity (Bos taurus [10]): > 98%
- Activity (Bos taurus [1]): Active
- MTD at 168 h [5]: 15 mg/kg
- Activity (Bos taurus [2]): Active
- Activity (Homo sapiens [11]): > 98%
- Activity (Bos taurus [3]): Active
- Activity (Bos taurus [4]): Active

Structure (SMILES): NCCOc1cc(-c2cc[n+](Cc3ccc(C(c4ccc(C[n+]5ccc(-c6cc(OCCN)c(OCCN)c(OCCN)c6)cc5)cc4)(c4ccc(C[n+]5ccc(-c6cc(OCCN)c(OCCN)c(OCCN)c6)cc5)cc4)c4ccc(C[n+]5ccc(-c6cc(OCCN)c(OCCN)c(OCCN)c6)cc5)cc4)cc3)cc2)cc(OCCN)c1OCCN.[Cl-].[Cl-].[Cl-].[Cl-]
- Ka [12]: 4.85e+06 M⁻¹
- Ka [13]: 7.09e+06 M⁻¹
- deltaH [14]: -5.63 kcal/mol
- Activity (Erythrocyte [37]): Non-Toxic
- deltaG [15]: -9.35 kcal/mol
- deltaH [18]: -5.33 kcal/mol
- Activity (Erythrocyte [38]): Non-Toxic
- deltaG [19]: -9.12 kcal/mol
- Activity (Homo sapiens [39]): Active
- deltaG [23]: -9.19 kcal/mol
- Activity (Bos taurus [1]): Active
- MTD at 168 h [5]: 20 mg/kg
- -TdeltaS [24]: -4.48 kcal/mol
- -TdeltaS [25]: -3.49 kcal/mol
- Ka [26]: 3.72e+06 M⁻¹
- deltaG [27]: -8.97 kcal/mol
- Ka [29]: 5.43e+06 M⁻¹
- APTT [40]: 23 s
- deltaH [30]: -4.86 kcal/mol
- -TdeltaS [31]: -4.37 kcal/mol
- -TdeltaS [32]: -3.64 kcal/mol
- deltaH [33]: -4.83 kcal/mol

Structure (SMILES): NCCOc1ccc2c[n+](Cc3ccc(C(c4ccc(C[n+]5ccc6cc(OCCN)ccc6c5)cc4)(c4ccc(C[n+]5ccc6cc(OCCN)ccc6c5)cc4)c4ccc(C[n+]5ccc6cc(OCCN)ccc6c5)cc4)cc3)ccc2c1
- Activity (Bos taurus [1]): Active
- Activity (Bos taurus [2]): Active
- Activity (Bos taurus [3]): Active
- Activity (Bos taurus [4]): Active
